Consider two compounds from PMC8162438, “Cancer cell-selective modulation of mitochondrial respiration and metabolism by potent organogold(III) dithiocarbamates” (Chemical Science, 2020).

The experiment deals with MRC5. As to the kind of experiment: MTT cell viability, human fetal lung fibroblasts MRC5. It counts as cell-based. The note with it: 72 h. The protocol:
All the gold(III) dithiocarbamate compounds display remarkable cell killing potential in a panel of breast, ovarian, lung and leukemia cancers. Preliminary studies focused on different cancer cell lines (MDA-MB-231, MDA-MB-175, and A2780), an immortalized normal retinal epithelial cell line (RPE-NEO) and human fetal lung fibroblasts (MRC5) (Fig. S111–S129 ^†). These adherent cells were exposed to a serial-diluted concentration of all ten compounds for 72 h. The cells were subsequently treated with 3-(4,5-dimethylthiazol-2-yl)-2,5-diphenyltetrazolium bromide (MTT) solutions, dissolved with DMSO and the absorbance at 570 nm was measured with a plate-reader.
In Vitro Biological Assays
Cell Culture. All cell lines were purchased from ATCC and routinely grown in a humidified incubator at 37 °C with 5-10% CO 2. MDA-MB-231, MDA-MB-175, MRC5, RPE-NEO, H460, and K562 were grown in DMEM supplemented with 10% FBS, 1% amphotericin and 1% penicillin/streptomycin. A2780 cells were grown in RPMI supplemented with 10% FBS, 1% amphotericin, and 1% penicillin/streptomycin, and 4 mM glutamine. All supplements along with PBS and trypsin-EDTA were purchased from Corning Inc. and used as is. […]
Cell Viability of 1a-1e and 2a-2e (Adherent Cell Lines). The cell viability of all 10 complexes were performed in MDA-MB-231, MDA-MB-175, A2780, RPE-NEO and MRC5. The cell viability of compound 2a was also determined in H460. Cells were grown to confluency and trypsin was added to detach and harvest cells. The cells were washed with 2 mL of PBS and suspended in 10 mL of the appropriate media. The cells were centrifuged at 2000 rpm for 5 minutes and the pellet washed with 2 mL of PBS then suspended in 5 mL of the appropriate […]
media. The cells were plated at a density of 2,000 cells/well in a 96-well clear bottom plate and allowed to adhere overnight at 37 °C with 5-10% CO 2. The compounds were prepared as a stock in DMSO and used fresh. The compounds were added at seven concentrations with a 3x serial dilution starting at 50 µM for the highest concentration and incubated at 37 °C for 72 h with 5-10% CO 2. The medium was removed and a solution of MTT (100 µL, prepared by dissolving MTT at 5 mg/mL and diluting by 10x with DMEM) was added to each well and incubated for 4 h at 37 ° C with 5-10% CO 2. The dye was removed from each well and 100 µL of DMSO was added to induce cell lysis. The plates were read using a Genios plate reader (λ = 570 nm). The experiment was performed in triplicate and data are plotted as the mean ± s.e.m. (n = 3). Data for 2a can be found in the main text (Figure 6) and the other complexes can be seen in the supplementary figures (S111 – S129). […]
Cells were grown to confluency and centrifuged at 2000 rpm for 5 minutes to collect the cell pellet. The cells were washed with 5 mL of PBS, suspended in 5 mL of DMEM, and centrifuged again at 2000 rpm for 5 minutes to collect the pellet. The pellet was then washed with 2 mL of PBS and suspended in 5 mL of DMEM. The cells were plated at density of 2,000 cells/well in a 96-well white bottom plate. 2a was prepared as a stock solution […]
10% CO 2. The cells were removed from the incubator and allowed to rest at room temperature for 30 minutes. To each designated well was then added 20 µL of CellTiter-Glo solution and orbitally shaken for 5 minutes and the luminescence (1000 ms integration and 150 ms gain) acquired on a Genios plate reader. The experiment was performed in triplicate. Data are plotted […]
Apoptosis Analysis. […]
A stock of 2a was prepared fresh in DMSO and added to the desired well at a concentration of 1 µM with a final volume of 2.5 mL and incubated for 4 h at 37 °C. A stock of H2O2 was prepared in PBS and the cells treated at a final concentration of 2 mM for 1 hour as a […]

Molecules are shown by their SMILES.

The IC50 is the concentration that inhibits the measured activity by half. Low readings indicate greater potency, high ones weaker potency.

On to `C[N+](C)=C1[S][Au-2]2([S]1)[c]1ccccc1C(=O)c1cccc[n+]12.F[P-](F)(F)(F)(F)F` (centres unmarked) [1a], for which the half-maximal inhibitory concentration (IC50) was more than 50 µM.

Compound `C[N+](C)=C1[S][Au-2]2([S]1)[c]1ccccc1Cc1cccc[n+]12.F[P-](F)(F)(F)(F)F` (centres unmarked) [2a] returned an IC50 of more than 50 µM.
